We go through three compounds from PubChem BioAssay (NCI).

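Cultured in 96-well plates, cells were exposed to test compound for 48 hours across five concentrations. Definition used: TGI = concentration required for complete inhibition of growth.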

One test deals with P388/ADR leukemia. As to the kind of experiment: NCI tumour cell line growth inhibition, 48 h.
The subject of another test is P388 leukemia. The test can be described thus: NCI tumour cell line growth inhibition, 48 h.

Take `CC1=CCCC2C1(C)CCC(C)C2(C)Cc1cc(O)ccc1O` (stereo unspecified): the results for the TGI with P388/ADR leukemia and in the test with P388 leukemia were 13 µM and 4.94 µM, respectively.
On the same counts, the results for `O=C1NC2C(=CC(O)C(O)C2O)c2cc3c(cc21)OCO3` (stereo unspecified) are 0.714 µM and 0.461 µM.
For `COc1cc2c(c(OC)c1OC)-c1ccc(OC)c(=O)cc1[C@@H](NC(C)=O)CC2` the same measures were 55.9 µM and 2.7 µM.
